Data as given in patent US20240139333A1, “2,6-DICHLOROPHENYL ESTER COMPOUNDS AND USE THEREOF” (Fusion Pharmaceuticals Inc., priority 2021, published 2024).

Assays:
[1] = Comparative active ester reactivity study with HOPO nucleophile; details: 1,2-HOPO 1 eq., 22±2° C.
Protocol: (§1) General Experimental Protocol for Comparative Active Ester Reactivity Study with HOPO or HOA Nucleophiles
(§2) To a 4 mL scintillation vial containing Compound A-E (in respective experiments; 1 eq.) was added a stir bar followed by 150 μL of HPLC grade acetonitrile. In another 4 mL scintillation vial containing a respective nucleophile (1 eq.) was added 280 μL HPLC grade water. The solutions were combined and allowed to stir at room temperature (22±2° C.) for 4 hours. Timed aliquots at time (T)=15, 30, 60, 120 and 240 minutes were taken and analyzed by HPLC-MS using elution method 1 (Table 1).

[2] = Comparative active ester reactivity study with HOA nucleophile (benzhydroxamic acid); details: Benzhydroxamic Acid 1 eq., 22±2° C.
Protocol: as §1, §2

[3] = Comparative active ester reactivity study with HOA nucleophile (N-hydroxy-N-methylbenzamide); details: N-Hydroxy-N-methylbenzamide 1 eq., 22±2° C.
Protocol: as §1, §2

[4] = Nucleophilic reactivity study with L-Lysine; details: L-Lysine 5 equiv, 22±2° C.
Protocol: General Experimental Protocol for Nucleophilic Reactivity Study with L-Lysine
To a 4 mL scintillation vial containing Compound A-E (in respective experiments; 1 eq.) was added a stir bar followed by 70 μL of HPLC grade acetonitrile. In another 4 mL scintillation vial containing L-Lysine monohydrochloride (5 eq.) was added 130 μL HPLC grade water followed by diisopropylethylamine (5 eq.). The solutions were combined and allowed to stir at room temperature (22±2° C.). Timed aliquots at time (T)=15, 30, 60 and 120 minutes were taken and analyzed by HPLC-MS using elution method 1 (Table 2).

[5] = pH stability study; format: physicochemical; details: 20° C.
Protocol: To a 4 mL scintillation vial containing Compound A-E (in respective experiments; 0.8 mg) was added 4 mL of either a pH 3, pH 5 pH 7 or pH 9 buffer to create a 0.2 mg/mL solution. 2 mL of this solution was added to a 2 mL HPLC vial and placed in the auto sampler of an HPLC-MS at 20° C. Timed aliquots at time (T)=15, 30, 60, 120, 240 and 480 minutes were taken and analyzed by HPLC-MS using elution method 1 (Table 3). […]
pH 3 Buffer: Citric acid/Na2HPO4 (79.45 mL 0.1 M-citric acid and 20.55 mL 0.2-Na2HPO4) pH 5 Buffer: Citric acid/Na2HPO4 (48.50 mL 0.1 M-citric acid and 51.50 mL 0.2-Na2HPO4) pH 7 Buffer: Citric acid/Na2HPO4 (17.65 mL 0.1 M-citric acid and 82.35 mL 0.2-Na2HPO4) pH 9 Buffer: Sodium Carbonate/Sodium Bicarbonate (10 mL 0.1 M-Na2CO3 and 90 mL 0.1-NaHCO3)

[6] = Temperature stability study in H2O; format: physicochemical
Protocol: 20° C.: To a 4 mL scintillation vial containing Compound A-E (in respective experiments; 0.8 mg) was added 4 mL of HPLC grade water to create a 0.2 mg/mL solution. 2 mL of this solution was added to a 2 mL HPLC vial and placed in the auto sampler of an HPLC-MS at 20° C. Timed aliquots at time (T)=15, 30, 60, 120, 240 and 480 minutes were taken and analyzed by HPLC-MS using elution method 1 (Table 4).
50° C.: To a 4 mL scintillation vial containing Compound A-E (in respective experiments; 0.8 mg) was added a stir bar followed by 4 mL of HPLC grade water to create a 0.2 mg/mL solution. The vial was capped and allowed to stir in a 50° C. oil bath for 8 hours. Timed aliquots at time (T) =15, 30, 60, 120, 240 and 480 minutes were taken and analyzed by HPLC-MS using elution method 1 (Table 4).

[7] = DMSO stability study; format: physicochemical
Protocol: To a 4 mL scintillation vial containing Compound A-E (in respective experiments; 4 mg) was added a stir bar followed by 500 μL of anhydrous dimethyl sulfoxide and was allowed to stir at room temperature (22±2° C.) for 4 hours. Timed aliquots at time (T)=15, 30, 60, 120 and 240 minutes were taken, dissolved in water to achieve 2% DMSO composition and analyzed by HPLC-MS using elution method 1 (Table 5).

SMILES: O=C(CCc1cccnc1)Oc1c(F)cccc1F [Compound B, 2,6-Difluorophenyl-3-(pyridin-3-yl)propanoate]
- % Active Ester Remaining ([1]; 15 min): 98.85%
- % Active Ester Remaining ([1]; 30 min): 96.23%
- % Active Ester Remaining ([1]; 60 min): 90.85%
- % Active Ester Remaining ([1]; 120 min): 84.98%
- % Active Ester Remaining ([1]; 240 min): 69.55%
- % Active Ester Remaining ([2]; 15 min): 81.80%
- % Active Ester Remaining ([2]; 30 min): 69.62%
- % Active Ester Remaining ([2]; 60 min): 56.57%
- % Active Ester Remaining ([2]; 120 min): 42.81%
- % Active Ester Remaining ([2]; 240 min): 28.60%
- % Active Ester Remaining ([3]; 15 min): 91.32%
- % Active Ester Remaining ([3]; 30 min): 84.96%
- % Active Ester Remaining ([3]; 60 min): 73.90%
- % Active Ester Remaining ([3]; 120 min): 56.72%
- % Active Ester Remaining ([3]; 240 min): 35.97%
- % Active Ester Remaining ([4]; 15 min): 0.20%
- % Active Ester Remaining ([4]; 30 min): 0%
- % Remaining ([5]; pH 3 buffer, 15 min): 100%
- % Remaining ([5]; pH 3 buffer, 30 min): 99.56%
- % Remaining ([5]; pH 3 buffer, 60 min): 99.19%
- % Remaining ([5]; pH 3 buffer, 120 min): 98.69%
- % Remaining ([5]; pH 3 buffer, 240 min): 97.41%
- % Remaining ([5]; pH 3 buffer, 480 min): 95.05%
- % Remaining ([5]; pH 5 buffer, 15 min): 100%
- % Remaining ([5]; pH 5 buffer, 30 min): 99.50%
- % Remaining ([5]; pH 5 buffer, 60 min): 99.05%
- % Remaining ([5]; pH 5 buffer, 120 min): 98.27%
- % Remaining ([5]; pH 5 buffer, 240 min): 96.36%
- % Remaining ([5]; pH 5 buffer, 480 min): 92.97%
- % Remaining ([5]; pH 7 buffer, 15 min): 99.35%
- % Remaining ([5]; pH 7 buffer, 30 min): 98.45%
- % Remaining ([5]; pH 7 buffer, 60 min): 97.44%
- % Remaining ([5]; pH 7 buffer, 120 min): 95.40%
- % Remaining ([5]; pH 7 buffer, 240 min): 91.66%
- % Remaining ([5]; pH 7 buffer, 480 min): 84.15%
- % Remaining ([5]; pH 9 buffer, 15 min): 78.39%
- % Remaining ([5]; pH 9 buffer, 30 min): 65.31%
- % Remaining ([5]; pH 9 buffer, 60 min): 54.47%
- % Remaining ([5]; pH 9 buffer, 120 min): 38.67%
- % Remaining ([5]; pH 9 buffer, 240 min): 19.98%
- % Remaining ([5]; pH 9 buffer, 480 min): 5.01%
- % Remaining ([6]; 20° C., 15 min): 99.63%
- % Remaining ([6]; 20° C., 30 min): 99.20%
- % Remaining ([6]; 20° C., 60 min): 98.92%
- % Remaining ([6]; 20° C., 120 min): 98.12%
- % Remaining ([6]; 20° C., 240 min): 96.98%
- % Remaining ([6]; 20° C., 480 min): 95.14%
- % Remaining ([6]; 50° C., 15 min): 97.57%
- % Remaining ([6]; 50° C., 30 min): 92.71%
- % Remaining ([6]; 50° C., 60 min): 89.62%
- % Remaining ([6]; 50° C., 120 min): 85.20%
- % Remaining ([6]; 50° C., 240 min): 79.93%
- % Remaining ([6]; 50° C., 480 min): 68.06%
- % Active Ester Remaining in DMSO at 22 ± 2° C. ([7]; 15 min): 99.89%
- % Active Ester Remaining in DMSO at 22 ± 2° C. ([7]; 30 min): 99.81%
- % Active Ester Remaining in DMSO at 22 ± 2° C. ([7]; 60 min): 99.79%
- % Active Ester Remaining in DMSO at 22 ± 2° C. ([7]; 120 min): 99.78%
- % Active Ester Remaining in DMSO at 22 ± 2° C. ([7]; 240 min): 99.46%

SMILES: O=C(CCc1cccnc1)Oc1ccc([N+](=O)[O-])cc1 [Compound D, 4-Nitrophenyl-3-(pyridin-3-yl)propanoate]
- % Active Ester Remaining ([1]; 15 min): 99.18%
- % Active Ester Remaining ([1]; 30 min): 96.81%
- % Active Ester Remaining ([1]; 60 min): 93.29%
- % Active Ester Remaining ([1]; 120 min): 85.25%
- % Active Ester Remaining ([1]; 240 min): 75.07%
- % Active Ester Remaining ([2]; 15 min): 96.49%
- % Active Ester Remaining ([2]; 30 min): 84.28%
- % Active Ester Remaining ([2]; 60 min): 74.58%
- % Active Ester Remaining ([2]; 120 min): 57.07%
- % Active Ester Remaining ([2]; 240 min): 34.21%
- % Active Ester Remaining ([3]; 15 min): 95.63%
- % Active Ester Remaining ([3]; 30 min): 90.98%
- % Active Ester Remaining ([3]; 60 min): 83.40%
- % Active Ester Remaining ([3]; 120 min): 65.46%
- % Active Ester Remaining ([3]; 240 min): 41.73%
- % Active Ester Remaining ([4]; 15 min): 8.34%
- % Active Ester Remaining ([4]; 30 min): 0%
- % Remaining ([5]; pH 3 buffer, 15 min): 100%
- % Remaining ([5]; pH 3 buffer, 30 min): 99.74%
- % Remaining ([5]; pH 3 buffer, 60 min): 99.57%
- % Remaining ([5]; pH 3 buffer, 120 min): 99.21%
- % Remaining ([5]; pH 3 buffer, 240 min): 98.55%
- % Remaining ([5]; pH 3 buffer, 480 min): 97.20%
- % Remaining ([5]; pH 5 buffer, 15 min): 99.83%
- % Remaining ([5]; pH 5 buffer, 30 min): 99.54%
- % Remaining ([5]; pH 5 buffer, 60 min): 99.19%
- % Remaining ([5]; pH 5 buffer, 120 min): 98.63%
- % Remaining ([5]; pH 5 buffer, 240 min): 97.52%
- % Remaining ([5]; pH 5 buffer, 480 min): 94.89%
- % Remaining ([5]; pH 7 buffer, 15 min): 99.11%
- % Remaining ([5]; pH 7 buffer, 30 min): 98.00%
- % Remaining ([5]; pH 7 buffer, 60 min): 96.59%
- % Remaining ([5]; pH 7 buffer, 120 min): 94.83%
- % Remaining ([5]; pH 7 buffer, 240 min): 89.25%
- % Remaining ([5]; pH 7 buffer, 480 min): 78.56%
- % Remaining ([5]; pH 9 buffer, 15 min): 83.05%
- % Remaining ([5]; pH 9 buffer, 30 min): 61.77%
- % Remaining ([5]; pH 9 buffer, 60 min): 42.40%
- % Remaining ([5]; pH 9 buffer, 120 min): 23.66%
- % Remaining ([5]; pH 9 buffer, 240 min): 14.96%
- % Remaining ([5]; pH 9 buffer, 480 min): 10.31%
- % Remaining ([6]; 20° C., 15 min): 97.54%
- % Remaining ([6]; 20° C., 30 min): 96.41%
- % Remaining ([6]; 20° C., 60 min): 95.69%
- % Remaining ([6]; 20° C., 120 min): 94.78%
- % Remaining ([6]; 20° C., 240 min): 93.59%
- % Remaining ([6]; 20° C., 480 min): 91.31%
- % Remaining ([6]; 50° C., 15 min): 86.19%
- % Remaining ([6]; 50° C., 30 min): 77.18%
- % Remaining ([6]; 50° C., 60 min): 72.58%
- % Remaining ([6]; 50° C., 120 min): 67.54%
- % Remaining ([6]; 50° C., 240 min): 65.59%
- % Remaining ([6]; 50° C., 480 min): 66.22%
- % Active Ester Remaining in DMSO at 22 ± 2° C. ([7]; 15 min): 99.35%
- % Active Ester Remaining in DMSO at 22 ± 2° C. ([7]; 30 min): 98.99%
- % Active Ester Remaining in DMSO at 22 ± 2° C. ([7]; 60 min): 99.29%
- % Active Ester Remaining in DMSO at 22 ± 2° C. ([7]; 120 min): 99.65%
- % Active Ester Remaining in DMSO at 22 ± 2° C. ([7]; 240 min): 99.31%
